Experiment: gradient 5% acetonitrile 3 min, to 50% in 2 min, to 85% in 15 min, held 3 min, 100 µL/min
Settings: column: Zorbax Extend-C18 2.1 x 50 mm; eluents: water / acetonitrile, 0.1% formic acid
Method in brief: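 Mixtures of ~100 pure standards were chromatographed on a Zorbax Extend-C18 column (2.1 × 50 mm, 1.8 μm) at 100 μL/min using water and acetonitrile, each with 0.1% formic acid. Detection used a quadrupole time-of-flight mass spectrometer in positive and negative ionization mode, and data collection spanned 3 months. Retention time was obtained from adduct peaks picked computationally and each checked manually.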

SMILES	RP-LC retention time [s]
Cc1cccc(S(=O)(=O)N2CCCN(c3ccc(=O)n(-c4ccc(F)cc4)n3)CC2)c1	865
Cc1cccc(-c2noc(CN3C(=O)COc4ccccc43)n2)c1	1030
COc1ccc(Cl)cc1S(=O)(=O)N1CCc2c(c(-c3nnc(-c4ccccc4)o3)nn2C)C1	958
CCOC(=O)c1c(S(=O)(=O)N2CCC(C(=O)Nc3cccc(Cl)c3)CC2)c(C)n(C)c1C	932
Cc1ccc(NC(=O)CCC2CCN(c3cc(NC4CC4)ncn3)CC2)cc1	692
CCn1nc(CNC(=O)Cc2ccccc2F)c2ccccc21	791
COC(=O)C1=C(C)NC(C)=C(C(=O)OCCSc2ccccc2)C1C (configuration not stated)	1080
COc1ccc(NC(=O)NCCc2cn(C)c3ncccc23)c(OC)c1	640
CCOc1ccccc1NC(=O)N1CC(n2cnnc2-c2ccccc2)C1	722
Cc1ccccc1Nc1c(-c2ccc(N(C)C)cc2)nc2ccc(Cl)cn12	815
CN1C(=O)c2cccn2CC1CNS(=O)(=O)Cc1ccccc1 (configuration not stated)	678
COc1ccccc1N1CCN(c2ncc(C(=O)O)c(C(C)C)n2)CC1	911
Cn1cccc1-c1noc(C2CCN(C(=O)c3ccoc3)C2)n1 (configuration not stated)	784
Cc1ccc(N2C(=O)CN(S(C)(=O)=O)CC2(C)C(=O)NC2CCCCCC2)cc1F (configuration not stated)	905
CCOc1ccc(NC(=O)CSc2nc(N3CCCCC3)nc3ccccc23)cc1	745
O=C1NCCCCCN(C(=O)c2cnccn2)[C@H]2CCC[C@@H]12	620

SMILES	RP-LC retention time [s]
O=C(Cc1ccc(Br)cc1)N1CCN(C(=O)c2cc(-c3cccnc3)n[nH]2)CC1	638
O=C(NCCc1ccccc1)C1CCCN(C(=O)c2cccc(C(F)(F)F)c2)C1 (configuration not stated)	903
CCOC(=O)N1CCN(S(=O)(=O)c2cn(C)nc2C)CC1	644
COc1cccc2c(=O)c(NC(=O)N3CCCC(C(N)=O)C3)c[nH]c12 (configuration not stated)	580
Cc1cc(C)cc(NC(=O)C2CCCN(c3nc4ccsc4c(=O)n3Cc3ccc(F)cc3)C2)c1 (configuration not stated)	1090
O=C(Nc1ccc(F)cc1)OCCOc1ccc([N+](=O)[O-])cc1	1030
CCN1C(=O)c2cccnc2Sc2cc(NC(=O)Cc3ccc(F)cc3)ccc21	816
CCN1CCCn2nc(C3CCN(C(=O)c4cccnc4SC)CC3)cc2C1=O	649
CCOc1ccc(S(=O)(=O)N2CCN(c3cnn4c(C)nnc4c3)CC2)cc1	714
Cc1ccc(-n2cccc2CC(=O)NCc2ccc(N3CCOCC3)cc2)cc1	877
Cc1cnc(C2CN(S(=O)(=O)c3cccc(F)c3)C2)n1CC1CC1	656
CCn1ccc2sc(C)c(C(=O)NCc3ccc(Br)cc3)c2c1=O	911
CCC(C(=O)NCCOc1ccc2nnc(-c3ccc(OC)cc3)n2n1)c1ccccc1 (configuration not stated)	735
Cc1oc(-c2[nH]ncc2C(=O)N(C)C)cc1S(=O)(=O)Nc1cccc(F)c1	668
CN(C)c1cccc(C(=O)Nc2cnn(-c3ncc(N4CCCC4)cn3)c2)c1	749
CC(C(=O)N1CCN(c2cc(-c3ccc(Cl)cc3)[nH]n2)CC1)c1ccccc1 (configuration not stated)	921

From the METLIN SMRT retention time set (Domingo-Almenara et al. 2019)
